In PMC4835225 (Chembiochem : a European journal of chemical biology, 2015):

Target: hENO1 (Homo sapiens, UniProt P06733)
Assay: isothermal titration calorimetry
Format: binding
Details: stoichiometry 1.4-1.6 molecules of 1 per hENO1

Chain of hENO1 (P06733 2-434): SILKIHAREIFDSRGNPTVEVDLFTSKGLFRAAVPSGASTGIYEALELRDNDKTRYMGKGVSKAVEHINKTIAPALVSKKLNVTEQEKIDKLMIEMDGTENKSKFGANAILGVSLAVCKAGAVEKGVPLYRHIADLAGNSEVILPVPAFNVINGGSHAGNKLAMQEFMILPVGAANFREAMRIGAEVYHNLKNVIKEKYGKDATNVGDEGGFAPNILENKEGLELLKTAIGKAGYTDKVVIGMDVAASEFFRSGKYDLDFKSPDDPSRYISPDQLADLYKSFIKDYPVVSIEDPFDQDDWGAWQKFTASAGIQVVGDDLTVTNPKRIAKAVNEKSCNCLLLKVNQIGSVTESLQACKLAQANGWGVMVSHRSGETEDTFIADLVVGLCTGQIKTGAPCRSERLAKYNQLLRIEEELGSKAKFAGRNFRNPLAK

SMILES: O=C1c2c(cc(O)c([C@@H]3CCc4cc(Cl)c(Cl)n43)c2O)-c2cc(Cl)c(Cl)n21 [compound 1, (-)-chlorizidine A]
- Kd: 1900 ± 900 nM
